What was measured:
CXCL12 binding to CXCR4 [1] = molecular target: T1, CXCL12 binding to CXCR4 (Homo sapiens, UniProt P48061); set-up: method as in PMID 18556651; conditions: cited from earlier work
T1 construct: expressed in transfected cells

[2] = tested on: inflammatory cell recruitment in the airways of OVA-sensitized and challenged BALB/c mice; test: 8-day murine model of airway hypereosinophilia (OVA sensitization and challenge), cell counts in BALF; assay type: in vivo, mouse; conditions: intranasal 300 nmol/kg in 10% HP-βCD; for effect on eosinophil / inflammatory cell recruitment in BALF after OVA challenge, intranasal: 2 h before each challenge
Experimental: The in vivo activity of the compounds was assessed in an 8-day model of hypereosinophilia created by immunization and challenge to ovalbumin in mice. Briefly, 9-week-old male BALB/c mice were sensitized by intraperitoneal injection of a mixture of 50 μg of ovalbumin (OVA, grade V; Sigma-Aldrich) adsorbed on aluminum hydroxide (2 mg; Sigma-Aldrich) in 0.1 ml of saline on days 0, 1, and 2. Mice were challenged intranasally with 10 μg of OVA in 25 μl of saline (12.5 μl/nostril) on days 5, 6, and 7. Control mice received intraperitoneal and intranasal administrations of saline alone. Intranasal administrations were performed under anesthesia with 50 mg/kg ketamine and 3.33 mg/kg xylazine given intraperitoneally. Food and water were supplied ad libitum. Animal experimentation was conducted with the approval of the government body that regulates animal research in France. The chalcone compounds were administered either by the intraperitoneal or intranasal routes. In a first set of experiments, mice received either chalcone 4 or carbonitrile-chalcone 4 solubilized in PBS with 10% HP-βCD (C0926, Sigma) by intranasal injection 2 h before each nasal OVA or saline challenge. In a second set of experiments, mice received CN-chalcone 4, vanillin, or parachlorobenzoylacetonitrile intranasally, in PBS with HP-βCD 10%, 2 h before each OVA or saline challenge. In the last set of experiments, mice received chalcone 4 or CN-chalcone 4 in suspension in carboxymethylcellulose 1% or solubilized in PBS with HP-βCD 10% and administered by intraperitoneal injection 2 h before each OVA or saline challenge. Collection of bronchoalveolar lavage fluid (BALF) was performed 24 h after the last OVA challenge. Mice were deeply anesthetized by intraperitoneal injection of 150 mg/kg ketamine and 10 mg/kg xylazine. A plastic canula was inserted into the trachea, and airways were lavaged by 10 instillations of 0.5 ml of ice-cold saline supplemented with 2.6 mM EDTA (saline-EDTA). Total and differential cell counts in the BALF were performed after centrifugation (300 × g for 5 min at 4 °C) to pellet cells. Erythrocytes were lysed by hypotonic shock by the addition of 1.5 ml of distilled H2O, followed by the addition of 0.5 ml of 0.6 M KCl. Cells were centrifuged and resuspended in 500 μl of ice-cold saline-EDTA, and total cell counts were determined using a hemocytometer (Neubauer's chamber). Differential cell counts were assessed on cytologic preparation obtained by cytocentrifugation (Cytospin 3, Shandon Ltd.) of 200 μl of diluted BALF (250,000 cells/ml in ice-cold saline-EDTA). Slides were stained with Hemacolor (Merck), and counts were performed on at least 400 cells for each preparation. Differential counts were expressed as absolute numbers or as a percentage of the total number of cells.
The in vivo activity of CN-chalcone 4 was assayed in a recently developed 8-day mouse model of airway hypereosinophilia ([24]). In this model, mice are sensitized by intraperitoneal injection of OVA (50 μg) adsorbed on 2 mg of aluminum hydroxide in 0.1 ml of saline on days 0, 1, and 2. Mice are then challenged intranasally with 10 μg of OVA in 25 μl of saline (12.5 μl/nostril) on days 5, 6, and 7. Drugs to be tested can be administered either systemically by the intraperitoneal route or locally by the intranasal route. The intranasal route mimics the inhalation exposure used in humans, which is the preferred and well accepted administration for inflamed airway treatment, in particular asthma. Thus, unless otherwise stated, drugs were administered intranasally in this study. Due to limited solubility of chalcone 4 (9 ± 1 μM) and CN-chalcone 4 (16 ± 2 μM) in saline buffer, drugs were dissolved in physiological solutions complemented with HP-βCD (10%, w/w). Under such conditions, chalcone 4 and CN-chalcone 4 could be dissolved at maximal concentrations reaching 690 ± 44 and 493 ± 36 μM, respectively.

CXCL12 binding to CXCR4 [3] = molecular target: T1, CXCL12 binding to CXCR4; test: FRET-based binding of CXCL12-TR to EGFP-hCXCR4 (competition); conditions: concentrations up to 10 μM
Experimental: FRET-based binding experiments were carried out as described ([26], [46]). Human embryonic kidney 293 cells expressing the fusion receptor EGFP-hCXCR4 were harvested in PBS (137 mM NaCl, 2.7 mM KCl, 4.3 mM Na2PO4·7H2O, 1.4 mM KH2PO4, pH 7.4) supplemented with 5 mM EDTA, pH 7.4, centrifuged, and resuspended in HEPES-bovine serum albumin (BSA) buffer (10 mM HEPES, 137.5 mM NaCl, 1.25 mM MgCl2, 1.25 mM CaCl2, 6 mM KCl, 10 mM glucose, 0.4 mM NaH2PO4, 0.1% bovine serum albumin (w/v), pH 7.4). Cells were used at a concentration of 10^6 cells/ml. Apparent affinities of the different ligands were determined by real-time fluorescence monitoring ligand-receptor interactions. […] Fluorescence emitted at 510 nm (excitation at 470 nm) was recorded at 21 °C using a Fluorolog 2 spectrofluorimeter (SPEX) and sampled every 0.3 s. Binding of CXCL12-TR to EGFP-labeled CXCR4 was detected as a reversible decline of emission at 510 nm, due to energy transfer from excited EGFP to TR. For competition experiments, the fluorescent chemokine was preincubated for 1 h at room temperature with or without various concentrations of each chalcone. Then the premix was added, and fluorescence was recorded until equilibrium was reached (300 s). Data were analyzed using Kaleidagraph 3.08 software (Synergy Software, Reading, PA).

Compound	activity upon CXCL12 binding to CXCR4 (CXCL12 binding to CXCR4 [1])	effect on eosinophil / inflammatory cell recruitment in BALF after OVA challenge, intranasal [2]	cell recruitment in the airways elicited by compound itself (saline-challenged mice), intranasal ([2]; no OVA challenge)	binding-neutralizing activity (CXCL12-TR binding to EGFP-CXCR4) (CXCL12 binding to CXCR4 [3])
O=C(/C=C/c1ccccc1)c1ccccc1 [chalcone 1, reference compound]	inactive	nor does it significantly attenuate eosinophil or any other inflammatory cell recruitment in the airways	does not promote any inflammatory response per se	–
N#CCC(=O)c1ccc(Cl)cc1 [pCBA, para-chlorobenzoylacetonitrile]	–	no effect on eosinophil recruitment in the airways	–	Neither vanillin nor pCBA exhibits any binding-neutralizing activity
COc1cc(C=O)ccc1O [vanillin]	–	no effect on eosinophil recruitment in the airways	–	Neither vanillin nor pCBA exhibits any binding-neutralizing activity
